The term Ki denotes the equilibrium dissociation constant of an inhibitor or competing ligand from its target.

One experiment has as its target ROCK1 (Homo sapiens (Human), UniProt Q13464). The conditions noted are these: read-out: ROCK1 Average Ki; 1 μM ATP.
The next experiment addresses MRCKβ (Homo sapiens (Human), UniProt Q9Y5S2). The experiment can be described thus: MRCKβ kinase assay (IMAP fluorescence polarization). The experiment is classed as biochemical. The conditions noted are these: 1 μM ATP; read-out: MRCK-B Average Ki. The source says:
MRCKα, MRCKβ, ROCK1 and ROCK2 Kinase Assays
For orientation: Fluorescence polarisation rises when a labelled molecule tumbles more slowly, as on binding a larger partner.

The next experiment has as its target ROCK2 (Homo sapiens (Human), UniProt O75116). As to the kind of experiment: ROCK2 kinase assay (IMAP fluorescence polarization). The experiment is classed as biochemical. The conditions noted are these: 1 μM ATP; read-out: ROCK2 Average Ki.

ROCK1, sequence (Q13464 2-1354 limits assumed): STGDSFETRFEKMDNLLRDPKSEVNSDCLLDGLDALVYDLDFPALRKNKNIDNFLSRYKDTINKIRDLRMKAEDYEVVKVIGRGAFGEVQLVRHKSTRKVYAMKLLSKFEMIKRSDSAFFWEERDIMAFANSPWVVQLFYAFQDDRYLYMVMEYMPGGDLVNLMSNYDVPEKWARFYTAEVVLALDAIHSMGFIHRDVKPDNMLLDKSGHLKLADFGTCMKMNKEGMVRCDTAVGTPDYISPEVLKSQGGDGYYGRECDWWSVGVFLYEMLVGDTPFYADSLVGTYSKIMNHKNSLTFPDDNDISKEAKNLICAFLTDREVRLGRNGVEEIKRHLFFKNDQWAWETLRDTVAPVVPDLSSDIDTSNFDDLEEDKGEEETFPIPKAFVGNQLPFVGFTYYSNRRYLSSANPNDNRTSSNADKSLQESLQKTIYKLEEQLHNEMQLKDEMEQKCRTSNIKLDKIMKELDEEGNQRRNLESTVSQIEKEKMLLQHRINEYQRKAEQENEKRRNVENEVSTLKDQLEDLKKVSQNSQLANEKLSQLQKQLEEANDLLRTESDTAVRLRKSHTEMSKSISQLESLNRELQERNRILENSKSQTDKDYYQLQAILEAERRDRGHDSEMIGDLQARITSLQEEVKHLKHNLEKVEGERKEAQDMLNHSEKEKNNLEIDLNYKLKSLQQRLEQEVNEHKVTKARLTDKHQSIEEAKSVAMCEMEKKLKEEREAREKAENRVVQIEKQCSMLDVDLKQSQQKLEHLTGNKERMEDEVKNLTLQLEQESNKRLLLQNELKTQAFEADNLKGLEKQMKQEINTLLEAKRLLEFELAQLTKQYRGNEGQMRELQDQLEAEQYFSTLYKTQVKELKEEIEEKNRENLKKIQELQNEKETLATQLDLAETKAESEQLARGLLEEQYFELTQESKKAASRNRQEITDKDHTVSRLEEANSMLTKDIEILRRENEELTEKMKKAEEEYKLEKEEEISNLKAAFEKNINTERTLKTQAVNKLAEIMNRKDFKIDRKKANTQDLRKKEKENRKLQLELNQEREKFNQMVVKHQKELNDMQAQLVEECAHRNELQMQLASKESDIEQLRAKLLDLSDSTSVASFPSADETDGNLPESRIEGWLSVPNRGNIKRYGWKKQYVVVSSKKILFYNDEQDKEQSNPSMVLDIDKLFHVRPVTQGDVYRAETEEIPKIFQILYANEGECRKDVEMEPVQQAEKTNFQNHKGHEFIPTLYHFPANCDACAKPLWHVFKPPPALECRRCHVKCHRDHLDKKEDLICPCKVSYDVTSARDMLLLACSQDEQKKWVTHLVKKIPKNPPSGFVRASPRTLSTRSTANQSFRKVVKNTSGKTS
ROCK2, sequence (O75116 whole entry): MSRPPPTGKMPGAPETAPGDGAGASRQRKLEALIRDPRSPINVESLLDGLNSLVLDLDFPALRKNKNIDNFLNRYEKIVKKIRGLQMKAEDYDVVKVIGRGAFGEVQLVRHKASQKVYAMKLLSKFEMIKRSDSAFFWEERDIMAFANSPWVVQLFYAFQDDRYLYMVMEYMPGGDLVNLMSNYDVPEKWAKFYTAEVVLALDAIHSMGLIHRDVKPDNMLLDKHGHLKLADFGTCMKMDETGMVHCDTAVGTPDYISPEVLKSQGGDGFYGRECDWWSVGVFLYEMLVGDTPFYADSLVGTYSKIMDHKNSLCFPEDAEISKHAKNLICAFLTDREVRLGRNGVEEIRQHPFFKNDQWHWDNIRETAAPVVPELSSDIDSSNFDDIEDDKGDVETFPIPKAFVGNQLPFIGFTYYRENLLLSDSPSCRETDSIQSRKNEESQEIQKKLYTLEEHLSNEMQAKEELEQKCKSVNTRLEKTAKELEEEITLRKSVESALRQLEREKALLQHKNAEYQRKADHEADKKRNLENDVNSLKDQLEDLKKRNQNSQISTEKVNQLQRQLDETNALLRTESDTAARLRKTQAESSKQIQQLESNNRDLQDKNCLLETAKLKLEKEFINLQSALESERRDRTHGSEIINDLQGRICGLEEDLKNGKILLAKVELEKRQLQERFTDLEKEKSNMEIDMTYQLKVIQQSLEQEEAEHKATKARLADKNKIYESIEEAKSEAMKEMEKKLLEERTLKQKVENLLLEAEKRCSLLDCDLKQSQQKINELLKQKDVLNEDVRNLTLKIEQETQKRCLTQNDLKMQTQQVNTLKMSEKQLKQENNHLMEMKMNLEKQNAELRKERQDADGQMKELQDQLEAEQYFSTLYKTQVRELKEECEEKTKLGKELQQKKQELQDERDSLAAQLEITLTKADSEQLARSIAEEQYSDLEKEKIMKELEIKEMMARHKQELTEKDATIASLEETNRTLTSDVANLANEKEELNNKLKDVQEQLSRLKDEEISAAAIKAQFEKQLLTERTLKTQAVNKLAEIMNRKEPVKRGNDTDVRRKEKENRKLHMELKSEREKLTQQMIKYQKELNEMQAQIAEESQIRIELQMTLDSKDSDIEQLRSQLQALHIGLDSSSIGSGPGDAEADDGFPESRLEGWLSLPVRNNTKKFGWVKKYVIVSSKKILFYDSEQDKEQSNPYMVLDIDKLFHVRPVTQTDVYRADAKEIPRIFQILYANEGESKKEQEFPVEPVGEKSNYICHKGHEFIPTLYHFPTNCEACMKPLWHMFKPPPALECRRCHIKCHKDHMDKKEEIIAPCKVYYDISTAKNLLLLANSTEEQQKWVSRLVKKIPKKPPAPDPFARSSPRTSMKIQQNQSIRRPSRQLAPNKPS
Method for ROCK2: MRCKα, MRCKβ, ROCK1 and ROCK2 assays were performed using an IMAP fluorescence polarization assay format (Molecular Devices Inc.). 8-12 nM of each kinase (Life Technologies) was incubated for 60 min at room temperature with 100 nM FAM-S6-ribosomal protein derived peptide (synthesized by Alta Biosciences, University of Birmingham UK) in the presence of 1 μM ATP and 0.5 mM MgCl2 in 20 mM Tris buffer (pH 7.4) containing 0.01% Tween-20 and 1 mM DTT (MRCKα and β); or 1 μM ATP, 10 mM MgCl2 in 20 mM Tris buffer (pH 7.5) containing 0.25 mM EGTA 0.01% Triton X-100 and 1 mM DTT (ROCK1 and ROCK2). Typically, dose response analyses were performed over concentration ranges from 0.005-100 μM. Reactions were stopped by adding 2 assay volumes of 0.25% (v/v) IMAP binding reagent in 1×IMAP binding buffer A (Molecular Devices). After 30 min incubation to allow binding reagent to bind phosphorylated peptide, fluorescence polarization was measured on a Tecan Saphire^2 plate reader at excitation (470 nm) and emission (530 nm) wavelengths.

On to `N#Cc1cc(-c2c[nH]c3nccc(N4CCCCC4)c23)cnc1N` [Example E7, 2-amino-5-[4-(1-piperidyl)-1H-pyrrolo[2,3-b]pyridin-3-yl]pyridine-3-carbonitrile], for which the Ki came out at 501 nM on ROCK1, 357 nM on MRCKβ and 245 nM on ROCK2.
On to `N#Cc1c[nH]c2nccc(N3CCNCC3)c12` [Example E34, 4-piperazin-1-yl-1H-pyrrolo[2,3-b]pyridine-3-carbonitrile], for which the Ki on ROCK1 was determined as 43.6 nM; at MRCKβ it was 52.8 nM; at ROCK2, 23.8 nM.
With `c1ncc(-c2c[nH]c3nccc(OCC4CCCNC4)c23)cn1` (stereo not drawn) [Example E220, 4-(3-piperidylmethoxy)-3-pyrimidin-5-yl-1H-pyrrolo[2,3-b]pyridine], the Ki came out at 34 nM on ROCK1, 1.07 nM at MRCKβ and 40.7 nM at ROCK2.
For `c1ncc(-c2c[nH]c3nccc(N4CCC5(CCNC5)CC4)c23)cn1` [Example E190, 8-(3-pyrimidin-5-yl-1H-pyrrolo[2,3-b]pyridin-4-yl)-2,8-diazaspiro[4.5]decane], in that order: 9.3 nM, 0.973 nM and 8.7 nM.
For `CN1CCN(C(=O)[C@@H]2CCCN2c2ccnc3[nH]cc(C#N)c23)CC1` [Example E204, 4-[(2S)-2-(4-methylpiperazine-1-carbonyl)pyrrolidin-1-yl]-1H-pyrrolo[2,3-b]pyridine-3-carbonitrile], in that order: 558 nM, 119 nM and 762 nM.
As for `N#Cc1cncc(-c2c[nH]c3nccc(N4CCCCC4)c23)c1` [Example E8, 5-[4-(1-piperidyl)-1H-pyrrolo[2,3-b]pyridin-3-yl]pyridine-3-carbonitrile], the Ki at ROCK1 was determined as 10000 nM; on MRCKβ it was 541 nM; on ROCK2, 3270 nM.
Take `Clc1cncc(-c2c[nH]c3nccc(N4CCCCC4)c23)c1` [Example E12, 3-(5-chloro-3-pyridyl)-4-(1-piperidyl)-1H-pyrrolo[2,3-b]pyridine]: the Ki at ROCK1 worked out at 2150 nM; at MRCKβ, 366 nM; on ROCK2, 574 nM.
Consider `c1ncc(-c2c[nH]c3nccc(OC4CCNCC4)c23)cn1` [Example E223, 4-(4-piperidyloxy)-3-pyrimidin-5-yl-1H-pyrrolo[2,3-b]pyridine], for which the Ki at ROCK1 came out at 153 nM; on MRCKβ it was 5.84 nM; at ROCK2 it was 108 nM.
Turning to `CCN1CCCC[C@]12CCCN(c1ccnc3[nH]cc(-c4cncnc4)c13)C2` [Example E208, (6R)-1-ethyl-8-(3-pyrimidin-5-yl-1H-pyrrolo[2,3-b]pyridin-4-yl)-1,8-diazaspiro[5.5]undecane], the Ki on ROCK1 is 1210 nM; on MRCKβ it was 9.73 nM; at ROCK2, 396 nM.
Turning to `COCCN[C@H]1CCCN(c2ccnc3[nH]cc(-c4cncnc4)c23)C1` [Example E73, (3S)-N-(2-methoxyethyl)-1-(3-pyrimidin-5-yl-1H-pyrrolo[2,3-b]pyridin-4-yl)piperidin-3-amine], the Ki was 2060 nM on ROCK1, 5.71 nM on MRCKβ and 964 nM on ROCK2.
For `OCCN[C@H]1CCCN(c2ccnc3[nH]cc(-c4cncnc4)c23)C1` [Example E56, 2-[[(3S)-1-(3-pyrimidin-5-yl-1H-pyrrolo[2,3-b]pyridin-4-yl)-3-piperidyl]amino]ethanol], in that order: 1390 nM, 2.23 nM and 573 nM.
Take `c1ncc(-c2c[nH]c3nccc(NC4CCCCNC4)c23)cn1` (stereo not drawn) [Example E85, N-(azepan-3-yl)-3-pyrimidin-5-yl-1H-pyrrolo[2,3-b]pyridin-4-amine]: the Ki on ROCK1 stood at 421 nM; on MRCKβ, 14.1 nM; on ROCK2, 460 nM.
As for `Cn1cc(-c2c[nH]c3nccc(N4CCCCC4)c23)cn1` [Example E24, 3-(1-methylpyrazol-4-yl)-4-(1-piperidyl)-1H-pyrrolo[2,3-b]pyridine], the Ki on ROCK1 came to 43.5 nM; on MRCKβ, 37.6 nM; on ROCK2, 20.8 nM.
With `c1cncc(-c2c[nH]c3nccc(N4CCC4)c23)c1` [Example E26, 4-(azetidin-1-yl)-3-(3-pyridyl)-1H-pyrrolo[2,3-b]pyridine], the Ki was determined as 545 nM at ROCK1, 57.6 nM at MRCKβ and 263 nM at ROCK2.
For `CN1CCCN(c2ccnc3[nH]cc(-c4cncnc4)c23)CC1` [Example E103, 4(4-methyl-1,4-diazepan-l-yl)-3-pyrimidin-5-yl-1H-pyrrolo[2,3-b]pyridine], in that order: 252 nM, 18.7 nM and 161 nM.
For `CNC1CCN(c2ccnc3[nH]cc(-c4cncnc4)c23)CC1` [Example E63, N-methyl-1-(3-pyrimidin-5-yl-1H-pyrrolo[2,3-b]pyridin-4-yl)piperidin-4-amine], in that order: 138 nM, 1.98 nM and 91.2 nM.
`CN[C@H]1CCCN(c2ccnc3[nH]cc(-c4ccc(F)cn4)c23)C1` [Example E51, (3S)-1-[3-(5-fluoro-2-pyridyl)-1H-pyrrolo[2,3-b]pyridin-4-yl]-N-methyl-piperidin-3-amine]: the Ki at ROCK1 worked out at 8930 nM; on MRCKβ it was 7.41 nM; on ROCK2, 2190 nM.
Regarding `c1cc(-c2c[nH]c3nccc(N4CCCC5(CCCCN5)C4)c23)cnn1` (stereo not drawn) [Example E172, 8-(3-pyridazin-4-yl-1H-pyrrolo[2,3-b]pyridin-4-yl)-1,8-diazaspiro[5.5]undecane], the Ki on ROCK1 is 33.6 nM; on MRCKβ, 0.723 nM; at ROCK2, 14.6 nM.
For `Cc1cnc2[nH]cc(-c3cncnc3)c2c1N1CCCCC1` [Example E1, 5-methyl-4-(1-piperidyl)-3-pyrimidin-5-yl-1H-pyrrolo[2,3-b]pyridine], in that order: 15000 nM, 64.6 nM and 6500 nM.
With `c1ncc(-c2c[nH]c3nccc(NC4CCCNC4)c23)cn1` (stereo not drawn) [Example E242], the Ki amounted to 217 nM at ROCK1, 19.3 nM at MRCKβ and 165 nM at ROCK2.
For “4-[4-(1-piperidyl)-1H-pyrrolo[2,3-b]pyridin-3-yl]pyridin-2-amine [Example E9]”, in that order: 1.5 nM, 0.886 nM and 1.25 nM.
On to `CN[C@H]1CCCN(c2ccnc3[nH]cc(-c4ncccc4F)c23)C1` [Example E48, (3S)-1-[3-(3-fluoro-2-pyridyl)-1H-pyrrolo[2,3-b]pyridin-4-yl]-N-methyl-piperidin-3-amine], for which the inhibition constant (Ki) on ROCK1 came to 3530 nM; on MRCKβ, 1.73 nM; at ROCK2 it was 756 nM.
In the case of `FC1CCN([C@H]2CCCN(c3ccnc4[nH]cc(-c5cncnc5)c34)C2)CC1` [Example E94, 4-[(3S)-3-(4-fluoro-1-piperidyl)-1-piperidyl]-3-pyrimidin-5-yl-1H-pyrrolo[2,3-b]pyridine], the Ki is 913 nM at ROCK1, 9.33 nM at MRCKβ and 495 nM at ROCK2.
For the compound `NC1CCN(c2ccnc3[nH]cc(-c4cncnc4)c23)CC1` [Example E65, 1-(3-pyrimidin-5-yl-1H-pyrrolo[2,3-b]pyridin-4-yl)piperidin-4-amine], the Ki came out at 128 nM on ROCK1, 1.65 nM on MRCKβ and 138 nM at ROCK2.
`c1ccc(-c2c[nH]c3nccc(N4CCCCC4)c23)nc1` [Example E23, 4-(1-piperidyl)-3-(2-pyridyl)-1H-pyrrolo[2,3-b]pyridine]: the Ki at ROCK1 turned out to be 1690 nM; on MRCKβ, 134 nM; on ROCK2, 699 nM.
As to `Cn1ccc(-c2c[nH]c3nccc(N4CCCCC4)c23)n1` [Example E22, 3-(1-methylpyrazol-3-yl)-4-(1-piperidyl)-1H-pyrrolo[2,3-b]pyridine], the Ki at ROCK1 was 10000 nM; on MRCKβ it was 656 nM; at ROCK2, 3220 nM.
For `CN[C@H]1CCCN(c2ccnc3[nH]cc(-c4ccccn4)c23)C1` [Example E49, (3S)-N-methyl-1-[3-(2-pyridyl)-1H-pyrrolo[2,3-b]pyridin-4-yl]piperidin-3-amine], in that order: 50800 nM, 0.506 nM and 272 nM.
As to `c1cc(N2CCCCC2)c2c(-c3ccc4[nH]ncc4c3)c[nH]c2n1` [Example E19, 3-(1H-indazol-5-yl)-4-(1-piperidyl)-1H-pyrrolo[2,3-b]pyridine], the Ki was 144 nM on ROCK1, 213 nM at MRCKβ and 115 nM at ROCK2.
On to `Nc1cccc(-c2c[nH]c3nccc(N4CCCCC4)c23)n1` [Example E3, 6-[4-(1-piperidyl)-1H-pyrrolo[2,3-b]pyridin-3-yl]pyridin-2-amine], for which the Ki at ROCK1 was found to be 28.6 nM; on MRCKβ, 39.9 nM; on ROCK2, 13.8 nM.
For `c1cnnc(-c2c[nH]c3nccc(N4CCCCC4)c23)c1` [Example E15, 4-(1-piperidyl)-3-pyridazin-3-yl-1H-pyrrolo[2,3-b]pyridine], in that order: 482 nM, 56.5 nM and 362 nM.
For `NCC1CCN(c2ccnc3[nH]cc(-c4cncnc4)c23)CC1` [Example E105, [1-(3-pyrimidin-5-yl-1H-pyrrolo[2,3-b]pyridin-4-yl)-4-piperidyl]methanamine], in that order: 10.1 nM, 1 nM and 9.5 nM.
In the case of `Fc1cncc(-c2c[nH]c3nccc(N4CCCCC4)c23)c1` [Example E11, 3-(5-fluoro-3-pyridyl)-4-(1-piperidyl)-1H-pyrrolo[2,3-b]pyridine], the figures for the Ki on ROCK1, on MRCKβ and on ROCK2 were 755 nM, 42.3 nM and 374 nM, respectively.
For `CN[C@H]1CCCN(c2ccnc3[nH]cc(C#N)c23)C1` [Example E74, 4-[(3S)-3-(methylamino)-1-piperidyl]-1H-pyrrolo[2,3-b]pyridine-3-carbonitrile], in that order: 637 nM, 6.16 nM and 222 nM.

Source of the values: patent US11447505B1, “Pyrrolo[2,3-b]pyridine compounds and their use in the treatment of cancer” (priority 2017, dated 2022).
